Each structure is given as a SMILES string. Where a SMILES comes first, the peptide text is derived from it. The star is where a group is joined. Cbz = O=C(OCc1ccccc1)*; CH2F = FC*

The source of these data is patent US20160369307A1, “METHOD OF INCREASING BIOMASS AND LIPID CONTENT IN A MICRO-ORGANISM AND A GENETICALLY MODIFIED MICRO-ORGANISM EXHIBITING ENHANCED AUTOPHAGY” (RELIANCE INDUSTRIES LIMITED, priority 2014, published 2016).

In experiment [1] the test system is Chlorella sorokiniana. The experiment can be described thus: Cell count of Chlorella sorokiniana under salinity stress with LiCl. In kind it is cell-based. Particulars: for Cell Density at Day 0: Day 0, day of salinity exposure (baseline); for Cell Density at Day 4: Day 4 of salinity stress. Here is the method: 5mM LiCl was added to the TAP medium in the Experimental plates, but not in the Control. […]
Thus, it can be concluded that even in environmental stress conditions like exposure to salinity, treatment of the algal cells with LiCl prevents cll death, increases the biomass and lipid content of the algal cells, and concomitantly yields an increased amount of commercially valuable products like oils which are known to be produced by the algal cells.

Experiment [2] has as its system Chlorella sorokiniana. In words: Recovery of Chlorella sorokiniana cultures after UV exposure with z-vad-fmk. In kind it is cell-based. The procedure: 1×10^6 cells/ml of Chlorella sorokiniana were grown for three days in Tris-Acetate-Phosphate (TAP) medium and then exposed to UV at 250000 μJ/cm^2 for one minute using CL-1000 UV crosslinker. Immediately after UV exposure, 25 μM Z-vad-fmk was added to the TAP medium. The cultures were kept in the dark for 24 hours. Cultures were then exposed to light of 2000 lux for 12 hours followed by 12 hours of darkness.
FIG. 1B graphically represents the optical density at 750 nm of the Control cultures versus the optical density of the cultures treated with z-vad-fmk on the 13th day after UV exposure. From these figures it is clear that z-vad-fmk induced autophagy in the Chlorella sorokiniana cells helping the cells to recover from UV exposure. […] Thus, it can be concluded that even in environmental stress conditions like exposure to UV, treatment of the algal cells with z-vad-fmk prevents cell death, increases the biomass and lipid content of the algal cells, and concomitantly yields an increased amount of commercially valuable products like oils which are known to be produced by the algal cells.

Setting [3] is: TAP + 0.6% Salinity + 5 mM LiCl.
The mark [4] stands for this setting: TAP + 1.2% Salinity + 5 mM LiCl.

For the compound `[Cl-].[Li+]` [LiCl], in the experiment with Chlorella sorokiniana [1] (5 mM LiCl, after 4 days of salinity stress exposure), the “Cell counts versus Control after salinity stress (FIG. 2)” value is reported as “higher cell counts”. Also, the “Cell Density at Day 0” value with Chlorella sorokiniana [1] (setting [3]) and in the experiment on Chlorella sorokiniana [1] (setting [4]) was 2.6 × 10^6 cells/ml throughout. Moreover, the “Cell Density at Day 4” value is recorded as 6.57 × 10^6 cells/ml with Chlorella sorokiniana [1] (setting [3]) and 7.22 × 10^6 cells/ml in the experiment on Chlorella sorokiniana [1] (setting [4]).

As to `COC(=O)C[C@H](NC(=O)[C@H](C)NC(=O)[C@@H](NC(=O)OCc1ccccc1)C(C)C)C(=O)CF` [z-vad-fmk] (Cbz-Val-Ala-Asp(OMe)-CH2F), the “Revival of bleached cultures after UV exposure” value in the experiment with Chlorella sorokiniana [2] (25 μM added to TAP medium immediately after UV 250000 μJ/cm^2 for one minute, 10 days) is reported as “only z-vad-fmk treated cultures were seen to revive after 10 days”. Moreover, in the experiment with Chlorella sorokiniana [2] (25 μM, 13 days after UV exposure, versus Control plates), the “Culture viability (plates, FIG. 1A) after UV exposure” value was “only the z-vad-fmk treated plates show viable cultures”.
